Measurements reported in US10105357B2, “Indication of antibiotic drugs for preparation of cancer inhibition pharmaceutical composition” (LAUNX BIOMEDICAL CO., LTD., priority 2014, dated 2018).
Where two headings read alike, the source gives them in different places.

Columns and labels:
Type in all cases: cell-based, human
[1] = test system: HeLa (Cervix Adenocarcinoma); assay: Cell viability analysis, cervical cancer HeLa; conditions: Homo sapiens, HeLa
[2] = test system: MCF7 (Mammary Gland, Adenocarcinoma); assay: Cell viability analysis, breast cancer MCF7; conditions: Homo sapiens
[3] = test system: MKN-45 (Gastric Adenocarcinoma); assay: Cell viability analysis, gastric cancer MKN-45; conditions: Homo sapiens
[4] = test system: HI650 (Lung Adenocarcinoma); assay: Cell viability analysis, lung cancer HI650; conditions: Homo sapiens
[5] = test system: A549 (Lung Adenocarcinoma); assay: Cell viability analysis, lung cancer A549; conditions: Homo sapiens
[6] = test system: A375 (Amelanotic Melanoma); assay: Cell viability analysis, skin cancer A375; conditions: Homo sapiens
[7] = test system: PC3 (p53−) (Prostate Adenocarcinoma); assay: Cell viability analysis, prostate cancer PC3; conditions: Homo sapiens
[8] = test system: TSGH-8301 (Urinary Bladder Carcinoma); assay: Cell viability analysis, bladder cancer TSGH-8301; conditions: Homo sapiens
[9] = test system: HL-60 (Acute Promyelocytic Leukemia); assay: Cell viability analysis, leukemia HL-60; conditions: Homo sapiens
[10] = test system: LoVo (Colorectal Adenocarcinoma); assay: Cell viability analysis, colon cancer LoVo; conditions: Homo sapiens, LoVo
[11] = test system: HepG2 (Hepatocellular Carcinoma); assay: Cell viability analysis, hepatic cancer HepG2; conditions: Homo sapiens
cancer cell lines = assay: Cell viability analysis (WST-1) on cancer cell lines; conditions: drug 10 μM, 72 hours, WST-1; Table 3
[12] = test system: AGS (Gastric Adenocarcinoma); assay: Cell viability analysis, gastric cancer AGS; conditions: Homo sapiens
[13] = 72 h, drug 10 μM, 72 hours, WST-1, OD450 nm, read-out: cell viability (survival rate), HeLa
[14] = MCF7, 72 h, drug 10 μM, 72 hours, WST-1, OD450 nm, read-out: cell viability (survival rate), MCF7
[15] = MKN-45, 72 h, drug 10 μM, 72 hours, WST-1, OD450 nm, read-out: cell viability (survival rate), MKN-45
[16] = NCI-H1650, 72 h, drug 10 μM, 72 hours, WST-1, OD450 nm, read-out: cell viability (survival rate), H1650
[17] = A549, 72 h, drug 10 μM, 72 hours, WST-1, OD450 nm, read-out: cell viability (survival rate), A549
[18] = A-375, 72 h, drug 10 μM, 72 hours, WST-1, OD450 nm, read-out: cell viability (survival rate), A375
[19] = 72 h, drug 10 μM, 72 hours, WST-1, OD450 nm, read-out: cell viability (survival rate), PC3
[20] = 72 h, drug 10 μM, 72 hours, WST-1, OD450 nm, read-out: cell viability (survival rate), TSGH
[21] = HL-60, 72 h, drug 10 μM, 72 hours, WST-1, OD450 nm, read-out: cell viability (survival rate), HL-60
[22] = 72 h, read-out: cell viability (survival rate), LoVo, drug 10 μM, 72 hours, WST-1, OD450 nm
[23] = HepG2, 72 h, drug 10 μM, 72 hours, WST-1, OD450 nm, read-out: cell viability (survival rate), HepG2
[24] = 72 h, drug 10 μM, 72 hours, WST-1, OD450 nm, read-out: cell viability (survival rate), AGS
[25] = 72 h, read-out: cell viability (survival rate), HeLa, drug 10 μM, 72 hours, WST-1, OD450 nm
[26] = MCF7, 72 h, read-out: cell viability (survival rate), MCF7, drug 10 μM, 72 hours, WST-1, OD450 nm
[27] = MKN-45, 72 h, read-out: cell viability (survival rate), MKN-45, drug 10 μM, 72 hours, WST-1, OD450 nm
[28] = NCI-H1650, 72 h, read-out: cell viability (survival rate), H1650, drug 10 μM, 72 hours, WST-1, OD450 nm
[29] = A549, 72 h, read-out: cell viability (survival rate), A549, drug 10 μM, 72 hours, WST-1, OD450 nm
[30] = A-375, 72 h, read-out: cell viability (survival rate), A375, drug 10 μM, 72 hours, WST-1, OD450 nm
[31] = 72 h, read-out: cell viability (survival rate), PC3, drug 10 μM, 72 hours, WST-1, OD450 nm
[32] = 72 h, read-out: cell viability (survival rate), TSGH, drug 10 μM, 72 hours, WST-1, OD450 nm
[33] = HL-60, 72 h, read-out: cell viability (survival rate), HL-60, drug 10 μM, 72 hours, WST-1, OD450 nm
[34] = HepG2, 72 h, read-out: cell viability (survival rate), HepG2, drug 10 μM, 72 hours, WST-1, OD450 nm
[35] = 72 h, read-out: cell viability (survival rate), AGS, drug 10 μM, 72 hours, WST-1, OD450 nm

CC(=O)O[C@]1(C(C)=O)CC[C@H]2[C@@H]3C[C@H](C)C4=CC(=O)CC[C@]4(C)[C@H]3CC[C@@]21C [Medroxyprogesterone acetate]
viability at 10 µM [1, 13]: 70.4%
viability at 10 µM [2, 14]: 69.3%
viability at 10 µM [3, 15]: 66.9%
viability at 10 µM [4, 16]: 38.6%
viability at 10 µM [5, 17]: 60.5%
viability at 10 µM [6, 18]: 81%
viability at 10 µM [7, 19]: 82%
viability at 10 µM [8, 20]: 79.4%
viability at 10 µM [9, 21]: 51.7%
viability at 10 µM [10, 22]: 65.9%
viability at 10 µM [11, 23]: 78.6%
inhibition effect on different cancer cell lines (cancer cell lines): significant inhibition effect
viability at 10 µM [12, 24]: 72.3%

NNC(=O)c1ccncc1 [Isoniazid (Tubizid), Isoniazid]
viability at 10 µM [1, 13]: 77.9%
viability at 10 µM [2, 14]: 44.7%
viability at 10 µM [3, 15]: 44.6%
viability at 10 µM [4, 16]: 64.7%
viability at 10 µM [5, 17]: 45.7%
viability at 10 µM [6, 18]: 54.9%
viability at 10 µM [7, 19]: 39.6%
viability at 10 µM [8, 20]: 42.2%
viability at 10 µM [9, 21]: 102%
viability at 10 µM [10, 22]: 71%
viability at 10 µM [11, 23]: 110%
inhibition effect on different cancer cell lines (cancer cell lines): significant inhibition effect
viability at 10 µM [12, 24]: 50.5%

Cc1cn([C@H]2C=C[C@@H](CO)O2)c(=O)[nH]c1=O [Stavudine]
viability at 10 µM [1, 13]: 98.1%
viability at 10 µM [2, 14]: 56.6%
viability at 10 µM [3, 15]: 66.8%
viability at 10 µM [4, 16]: 50.2%
viability at 10 µM [5, 17]: 38.9%
viability at 10 µM [6, 18]: 56.1%
viability at 10 µM [7, 19]: 73.5%
viability at 10 µM [8, 20]: 112%
viability at 10 µM [9, 21]: 96%
viability at 10 µM [10, 22]: 70.7%
viability at 10 µM [11, 23]: 97.1%
inhibition effect on different cancer cell lines (cancer cell lines): significant inhibition effect
viability at 10 µM [12, 24]: 39.2%

C[C@H]1[C@H](NC(=O)/C(=N\OC(C)(C)C(=O)O)c2csc(N)n2)C(=O)N1S(=O)(=O)O [Aztreonam (Azactam, Cayston), Aztreonam]
viability at 10 µM [1, 25]: 87.2%
viability at 10 µM [2, 26]: 68.6%
viability at 10 µM [3, 27]: 60.5%
viability at 10 µM [4, 28]: 48.6%
viability at 10 µM [5, 29]: 56.9%
viability at 10 µM [6, 30]: 88.6%
viability at 10 µM [7, 31]: 55.2%
viability at 10 µM [8, 32]: 52.3%
viability at 10 µM [9, 33]: 113%
viability at 10 µM [10, 22]: 76.3%
viability at 10 µM [11, 34]: 111%
inhibition effect on different cancer cell lines (cancer cell lines): significant inhibition effect
viability at 10 µM [12, 35]: 40.9%

COc1c(N2CCNC(C)C2)c(F)cc2c(=O)c(C(=O)O)cn(C3CC3)c12 (stereo not shown) [Gatifloxacin]
viability at 10 µM [1, 13]: 84.1%
viability at 10 µM [2, 14]: 130%
viability at 10 µM [3, 15]: 84.2%
viability at 10 µM [4, 16]: 47.2%
viability at 10 µM [5, 17]: 96%
viability at 10 µM [6, 18]: 63.3%
viability at 10 µM [7, 19]: 82.2%
viability at 10 µM [8, 20]: 65%
viability at 10 µM [9, 21]: 100%
viability at 10 µM [10, 22]: 98.3%
viability at 10 µM [11, 23]: 65.6%
inhibition effect on different cancer cell lines (cancer cell lines): significant inhibition effect
viability at 10 µM [12, 24]: 71.4%

O=C(O)CCNC(=O)c1ccccc1 [Betamipron]
viability at 10 µM [1, 25]: 75.9%
viability at 10 µM [2, 26]: 118%
viability at 10 µM [3, 27]: 88.2%
viability at 10 µM [4, 28]: 72.8%
viability at 10 µM [5, 29]: 72.3%
viability at 10 µM [6, 30]: 85.8%
viability at 10 µM [7, 31]: 92.6%
viability at 10 µM [8, 32]: 85.4%
viability at 10 µM [9, 33]: 96.2%
viability at 10 µM [10, 22]: 93.5%
viability at 10 µM [11, 34]: 90.9%
inhibition effect on different cancer cell lines (cancer cell lines): significant inhibition effect
viability at 10 µM [12, 35]: 75.2%

C[C@H](CCC(=O)O)[C@H]1CC[C@H]2[C@@H]3[C@H](O)C[C@@H]4C[C@H](O)CC[C@]4(C)[C@H]3CC[C@]12C [Chenodeoxycholic acid]
viability at 10 µM [1, 13]: 69.1%
viability at 10 µM [2, 14]: 74.5%
viability at 10 µM [3, 15]: 51.8%
viability at 10 µM [4, 16]: 68.1%
viability at 10 µM [5, 17]: 96.3%
viability at 10 µM [6, 18]: 64.2%
viability at 10 µM [7, 19]: 71.4%
viability at 10 µM [8, 20]: 88.8%
viability at 10 µM [9, 21]: 118%
viability at 10 µM [10, 22]: 82.7%
viability at 10 µM [11, 23]: 94.8%
inhibition effect on different cancer cell lines (cancer cell lines): significant inhibition effect
viability at 10 µM [12, 24]: 68.9%

CC[C@H]1OC(=O)C[C@@H](O)[C@H](C)[C@@H](O[C@@H]2O[C@H](C)[C@@H](O)[C@H](N(C)C)[C@H]2O)[C@@H](CCN2C[C@H](C)C[C@H](C)C2)C[C@@H](C)C(=O)/C=C/C(C)=C/[C@@H]1CO[C@@H]1O[C@H](C)[C@@H](O)[C@@H](OC)[C@H]1OC [Tilmicosin]
viability at 10 µM [1, 13]: 67%
viability at 10 µM [2, 14]: 39.1%
viability at 10 µM [3, 15]: 52.1%
viability at 10 µM [4, 16]: 72.7%
viability at 10 µM [5, 17]: 53.5%
viability at 10 µM [6, 18]: 54.7%
viability at 10 µM [7, 19]: 81.5%
viability at 10 µM [8, 20]: 56.5%
viability at 10 µM [9, 21]: 75%
viability at 10 µM [10, 22]: 83.8%
viability at 10 µM [11, 23]: 92.1%
inhibition effect on different cancer cell lines (cancer cell lines): significant inhibition effect
viability at 10 µM [12, 24]: 102%

CCn1cc(C(=O)O)c(=O)c2cc(F)c(N3CCNCC3)nc21 [Enoxacin (Penetrex), Enoxacin]
viability at 10 µM [1, 13]: 68.5%
viability at 10 µM [2, 14]: 44.5%
viability at 10 µM [3, 15]: 54.3%
viability at 10 µM [4, 16]: 92.3%
viability at 10 µM [5, 17]: 45.8%
viability at 10 µM [6, 18]: 66.9%
viability at 10 µM [7, 19]: 112%
viability at 10 µM [8, 20]: 90.4%
viability at 10 µM [9, 21]: 108%
viability at 10 µM [10, 22]: 83.8%
viability at 10 µM [11, 23]: 88.1%
inhibition effect on different cancer cell lines (cancer cell lines): significant inhibition effect
viability at 10 µM [12, 24]: 111%

COc1cccc(N(C)C(=S)Oc2ccc3c(c2)CCCC3)n1 [Liranaftate]
viability at 10 µM ([1]; drug 10 μM, 72 hours, WST-1, OD450 nm, read-out: cell viability (survival rate), HeLa): 89%
viability at 10 µM ([2]; MCF7, drug 10 μM, 72 hours, WST-1, OD450 nm, read-out: cell viability (survival rate), MCF7): 84.8%
viability at 10 µM ([3]; MKN-45, drug 10 μM, 72 hours, WST-1, OD450 nm, read-out: cell viability (survival rate), MKN-45): 76.7%
viability at 10 µM ([4]; NCI-H1650, drug 10 μM, 72 hours, WST-1, OD450 nm, read-out: cell viability (survival rate), H1650): 50.7%
viability at 10 µM ([5]; A549, drug 10 μM, 72 hours, WST-1, OD450 nm, read-out: cell viability (survival rate), A549): 67.1%
viability at 10 µM ([6]; A-375, drug 10 μM, 72 hours, WST-1, OD450 nm, read-out: cell viability (survival rate), A375): 84.5%
viability at 10 µM ([7]; drug 10 μM, 72 hours, WST-1, OD450 nm, read-out: cell viability (survival rate), PC3): 92.7%
viability at 10 µM ([8]; drug 10 μM, 72 hours, WST-1, OD450 nm, read-out: cell viability (survival rate), TSGH): 108%
viability at 10 µM ([9]; HL-60, drug 10 μM, 72 hours, WST-1, OD450 nm, read-out: cell viability (survival rate), HL-60): 92%
viability at 10 µM ([10]; drug 10 μM, 72 hours, WST-1, OD450 nm, read-out: cell viability (survival rate), LoVo): 86.6%
viability at 10 µM ([11]; HepG2, drug 10 μM, 72 hours, WST-1, OD450 nm, read-out: cell viability (survival rate), HepG2): 79.8%
inhibition effect on different cancer cell lines (cancer cell lines): significant inhibition effect
viability at 10 µM ([12]; drug 10 μM, 72 hours, WST-1, OD450 nm, read-out: cell viability (survival rate), AGS): 73.6%
